Measurements as given in patent US6395750B1, “Drugs for the treatment of malignant tumors” (Active Biotech AB, priority 1999, dated 2002).
Marks after values point to notes of the source that are not given here.

Legend:
[1] = test system: Dunning R-3327 AT-1 tumour; assay: Primary screen: tumour growth inhibition, Dunning R-3327 AT-1 prostatic cancer transplanted sc; type: in vivo, rat
Description: The compounds of general formula (I) were assayed for their capacity to inhibit of growth of the Dunning R-3327 AT-1 tumour, a prostatic rat cancer.
R-3327 AT-1 Prostatic cancer in man is an angiogenic type of solid tumour. The Dunning R-3327 AT-1 is a prostatic cancer of the rat and suits as an experimental animal model for this disease. The AT-1 tumour is serially transplanted subcutaneously (sc) on syngeneic rats of the Copenhagen strain. Small pieces of the tumour are transplanted sc to recipient rats and treatment of the tumour bearing rats start when the tumours are easily measurable approximately on day 10 after transplantation. Doses of the compounds are given either orally or parentally 5 days a week for four weeks. The tumour growth and body weight gain are monitored during the experimental time.

[2] = Beagle Pain Syndrome, pro-inflammatory reaction (ESR, AP); type: in vivo, beagle dog; details: beagle dogs, five consecutive days
[3] = beagle dog, literature; cited from earlier work
[4] = test system: Dunning R-3327 rat prostatic cancers; details: literature report; cited from earlier work
[5] = patients with renal cell carcinoma; cited from earlier work
[6] = 8 mg/kg ip, treatment given on Day 11

Compound: CN(C(=O)c1c(O)c2c(Cl)cccc2n(C)c1=O)c1ccc(Cl)cc1 [B, N-methyl-N-(4-chloro-phenyl)-1,2-dihydro-4-hydroxy-5-chloro-1-methyl-2-oxo-quinoline-3-carboxamide]
- % Tumour Weight Reduction ([1]; 2 mg/kg po): 28%

Compound: CSc1cccc2c1c(O)c(C(=O)N(C)c1ccc(F)cc1F)c(=O)n2C [C, N-methyl-N-(2,4-difluoro-phenyl)-1,2-dihydro-4-hydroxy-5-thiomethyl-1-methyl-2-oxo-quinoline-3-carboxamide]
- % Tumour Weight Reduction ([1]; 2 mg/kg po): 39%

Compound: CCN(C(=O)c1c(O)c2c(Cl)cccc2n(C)c1=O)c1ccccc1 [Compound A, N-ethyl-N-phenyl-1,2-dihydro-4-hydroxy-5-chloro-1-methyl-2-oxo-quinoline-3-carboxamide]
- AP percentage change (Day 8 - baseline) ([2]; 1 mg/kg p. o.): 25%
- ESR percentage change (Day 8 - baseline) ([2]; 1 mg/kg p. o.): 177%
- AP percentage change (Day 8 - baseline) ([2]; 10 mg/kg p. o.): 109%
- ESR percentage change (Day 8 - baseline) ([2]; 10 mg/kg p. o.): 515%
- % Tumour Weight Reduction ([1]; 2 mg/kg sc): 37%

Compound: Cc1cccc2c1c(N)c(C(=O)N(C)c1ccccc1)c(=O)n2C [Compound D, N-methyl-N-phenyl-4-amino-1,2-dihydro-1,5-dimethyl-2-oxo-quinoline-3-carboxamide]
- % Tumour Weight Reduction ([1]; 2 mg/kg sc): 38%

Compound: CN(C(=O)c1c(O)c2ccccc2n(C)c1=O)c1ccccc1 [Compound E, N-methyl-N-phenyl-1,2-dihydro-4-hydroxy-1-methyl-2-oxo-quinoline-3-carboxamide]
- induction of beagle pain syndrome (fever, myalgia, arthralgia, arteritis) [3]: induces the beagle pain syndrome
- % Tumour Weight Reduction ([1]; 4 mg/kg sc): 30%
- inhibition of growth of the Dunning R-3327 AT-1 tumour ([1]; 4 mg/kg, positive treatment control): 30%
- antitumour effects [4]: antitumour effects
- patients withdrawn or having dose reductions due to adverse events [5]: 40%

Compound: COc1cccc2c1C(=O)c1c(O)c3c(c(O)c1C2=O)C[C@@](O)(C(=O)CO)C[C@@H]3O[C@H]1C[C@H](N)[C@H](O)[C@H](C)O1 [doxorubicin]
- % Tumour Weight Reduction ([1]; 4 mg/kg ip, treatment given on Day 11): 0%
- % Tumour Weight Reduction [1, 6]: 31^b) %
- body weight effect [1, 6]: ^b)8 mg/kg of doxorubicin caused a body weight loss

Compound: CC[C@]1(O)C[C@@H]2CN(CCc3c([nH]c4ccccc34)[C@@](C(=O)OC)(c3cc4c(cc3OC)N(C)[C@H]3[C@@](O)(C(=O)OC)[C@H](OC(C)=O)[C@]5(CC)C=CCN6CC[C@]43[C@@H]65)C2)C1 [vinblastine]
- % Tumour Weight Reduction ([1]; 1 mg/kg iv, treatment given on Day 11): 0%
- % Tumour Weight Reduction ([1]; 4 mg/kg iv, treatment given on Day 11): toxic
